Measured values: US11267861B2, “Peptide-oligourea foldamer compounds and methods of their use” (UREKA SARL, priority 2016, dated 2022)
≈ marks a conversion by molar mass, not a printed value. Numbered stars: 1 amine (or outer) side, 2 acyl side, 3 side chain; on linkers, the order of the positions; unused ones are H or OH. Bridge positions count the residues as written; N and C are the ends. Square brackets hold non-standard residues; d marks the D form. Peptide text beside a SMILES is read from it. I, II: the chains in the order shown. X1 = C[C@@H](CNC(=O)[*:1])N[*:2]; Nle = CCCC[C@H](N)C(=O)O

Legend:
human glucagon receptor = target: T1, human glucagon receptor (Homo sapiens, UniProt P47871); experiment: Glucagon functional assay: agonist activity by cAMP production (HTRF) in transfected CHO cells; type: cell-based; conditions: for EC50: cAMP production, transfected CHO cells, 10 minutes at 37° C.
T1 construct: expressed in transfected cells; host or cells: CHO cells
T1 sequence (P47871 26-477): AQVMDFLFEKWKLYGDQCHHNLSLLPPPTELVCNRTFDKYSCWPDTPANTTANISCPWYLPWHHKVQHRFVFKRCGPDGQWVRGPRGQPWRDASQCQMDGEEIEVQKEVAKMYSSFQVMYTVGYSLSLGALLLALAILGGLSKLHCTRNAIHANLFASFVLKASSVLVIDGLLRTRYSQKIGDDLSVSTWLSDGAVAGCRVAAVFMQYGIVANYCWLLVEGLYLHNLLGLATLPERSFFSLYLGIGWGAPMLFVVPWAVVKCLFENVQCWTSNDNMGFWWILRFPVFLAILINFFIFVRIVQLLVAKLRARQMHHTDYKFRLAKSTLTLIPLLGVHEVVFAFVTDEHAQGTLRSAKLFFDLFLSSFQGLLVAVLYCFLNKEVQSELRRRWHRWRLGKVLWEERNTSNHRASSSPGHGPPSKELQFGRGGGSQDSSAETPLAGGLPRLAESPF
Procedure: Functional Assay to Examine Bioactivity of Glucagon Receptor Agonists. Evaluation of the agonist activity of compounds at the human glucagon receptor expressed in transfected CHO cells was examined by measuring their effects on cAMP production using the HTRF detection method. […] For stimulated control measurement, separate assay wells contain 100 nM glucagon were utilized.
Following incubation, the cells were lysed and the fluorescence acceptor (D2-labeled cAMP) and fluorescence donor (anti-cAMP antibody labeled with europium cryptate) were added. […] The results are expressed as a percent of the control response to 100 nM glucagon. The standard reference agonist is glucagon, which was tested in each experiment at several concentrations to generate a concentration-response curve from which its EC50 value was calculated.
HTRF (Homogeneous Time-Resolved Fluorescence) principle. The HTRF technology is based on time resolved fluorescence energy transfer (TR-FRET), which occurs between long-lived fluorophore Europium or Terbium Cryptates, and EuK or Tb respectively, as a donor and the allophycocyanin XL665, d2 or Red as acceptor. Many compounds and proteins present in biological fluids or serum are naturally fluorescent, and the use of conventional, prompt fluorescence leads to serious limitations in assay sensitivity. The use of long-lived fluorophore combined with time-resolved detection (a delay between excitation and emission detection) minimizes prompt fluorescence interference.

[1] = Solubility of glucagon analogs (UV absorbance); type: physicochemical; conditions: for solubility: 0.01M HCl solution adjusted to pH 7 with Na2HPO4, pH 7, pH adjusted to 7 with Na2HPO4, incubated overnight at 4° C.; for ratio (solubility relative to reference compound 16): relative to compound 16;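 for all read-outs here: peptide stock at 3 mg/ml in 0.01 M HCl, absorbance at 280 nm read before neutralization and again on the diluted supernatant after centrifugation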
Procedure: A solution of 3 mg/ml of glucagon (or analog) was prepared in a 0.01M HCl solution. Then 0.1 ml of the stock solution was diluted to 1 ml with HCl (0.01M) and the UV absorbance measured (to 280 nm) with nanodrop UV spectrometer. The pH of the remaining stock solution was adjusted to 7 using Na2HPO4, and the solution was incubated overnight at 4° C. The solution was then centrifuged three times (5 minutes, 4000 rotations per minute), 0.1 ml of the supernatant was removed and diluted to 1 ml with HCl solution (0.01M).
The final UV absorbance was measured.

SMILES | EC50 (human glucagon receptor) | solubility [1] | ratio (solubility relative to reference compound 16) [1] | % bioactivity of reference, GCG-R (human glucagon receptor; Reference Compound 16)
CC(C)C[C@H](NC(=O)[C@H](Cc1ccc(O)cc1)NC(=O)[C@H](CCCCN)NC(=O)[C@H](CO)NC(=O)[C@H](Cc1ccc(O)cc1)NC(=O)[C@H](CC(=O)O)NC(=O)[C@H](CO)NC(=O)[C@@H](NC(=O)[C@H](Cc1ccccc1)NC(=O)[C@@H](NC(=O)CNC(=O)[C@H](CCC(N)=O)NC(=O)[C@H](CO)NC(=O)[C@@H](N)Cc1c[nH]cn1)[C@@H](C)O)[C@@H](C)O)C(=O)N[C@@H](CC(=O)O)C(=O)N[C@@H](CO)C(=O)N[C@@H](CCCNC(=N)N)C(=O)N[C@@H](CCCNC(=N)N)C(=O)N[C@@H](C)C(=O)N[C@@H](CCC(N)=O)C(=O)N[C@@H](CC(=O)O)C(=O)N[C@@H](Cc1ccccc1)C(=O)N[C@H](C(=O)N[C@@H](CCC(N)=O)C(=O)N[C@@H](Cc1c[nH]c2ccccc12)C(=O)N[C@@H](CC(C)C)C(=O)N[C@@H](C)CNC(=O)N[C@@H](CC(N)=O)C(=O)N[C@H](C(=O)O)[C@@H](C)O)C(C)C [Compound 34] | 2.5 nM | 860 µg/mL (≈ 249 µM) | 3.4 | 
CCCC[C@H](NC(=O)[C@H](CC(C)C)NC(=O)[C@H](Cc1c[nH]c2ccccc12)NC(=O)[C@H](CCC(N)=O)NC(=O)[C@@H](NC(=O)[C@H](Cc1ccccc1)NC(=O)[C@H](CC(=O)O)NC(=O)[C@H](CCC(N)=O)NC(=O)[C@H](C)NC(=O)[C@H](CCCNC(=N)N)NC(=O)[C@H](CCCNC(=N)N)NC(=O)[C@H](CO)NC(=O)[C@H](CC(=O)O)NC(=O)[C@H](CC(C)C)NC(=O)[C@H](Cc1ccc(O)cc1)NC(=O)[C@H](CCCCN)NC(=O)[C@H](CO)NC(=O)[C@H](Cc1ccc(O)cc1)NC(=O)[C@H](CC(=O)O)NC(=O)[C@H](CO)NC(=O)[C@@H](NC(=O)[C@H](Cc1ccccc1)NC(=O)[C@@H](NC(=O)CNC(=O)[C@H](CCC(N)=O)NC(=O)[C@H](CO)NC(=O)[C@@H](N)Cc1c[nH]cn1)[C@@H](C)O)[C@@H](C)O)C(C)C)C(=O)N[C@@H](C)CNC(=O)N[C@H](C(=O)O)[C@@H](C)O [Compound 35] | 0.44 nM |  |  | 
CCCC[C@H](NC(=O)[C@H](CC(C)C)NC(=O)[C@H](Cc1c[nH]c2ccccc12)NC(=O)[C@H](CCC(N)=O)NC(=O)[C@@H](NC(=O)[C@H](Cc1ccccc1)NC(=O)[C@H](CC(=O)O)NC(=O)[C@H](CCC(N)=O)NC(=O)[C@H](C)NC(=O)[C@H](CCCNC(=N)N)NC(=O)[C@H](CCCNC(=N)N)NC(=O)[C@H](CO)NC(=O)[C@H](CC(=O)O)NC(=O)[C@H](CC(C)C)NC(=O)[C@H](Cc1ccc(O)cc1)NC(=O)[C@H](CCCCN)NC(=O)[C@H](CO)NC(=O)[C@H](Cc1ccc(O)cc1)NC(=O)[C@H](CC(=O)O)NC(=O)[C@H](CO)NC(=O)[C@@H](NC(=O)[C@H](Cc1ccccc1)NC(=O)[C@@H](NC(=O)CNC(=O)[C@H](CCC(N)=O)NC(=O)[C@H](CO)NC(=O)[C@@H](N)Cc1c[nH]cn1)[C@@H](C)O)[C@@H](C)O)C(C)C)C(=O)N[C@@H](CC(N)=O)C(=O)N[C@@H](C)CNC(N)=O [Compound 36] | 0.026 nM |  |  | 246%
CCCC[C@H](NC(=O)[C@H](CC(C)C)NC(=O)[C@H](Cc1c[nH]c2ccccc12)NC(=O)[C@H](CCC(N)=O)NC(=O)[C@@H](NC(=O)[C@H](Cc1ccccc1)NC(=O)[C@H](CC(=O)O)NC(=O)[C@H](CCC(N)=O)NC(=O)[C@H](C)NC(=O)[C@H](CCCNC(=N)N)NC(=O)[C@H](CCCNC(=N)N)NC(=O)[C@H](CO)NC(=O)[C@H](CC(=O)O)NC(=O)NC[C@H](C)NC(=O)[C@H](Cc1ccc(O)cc1)NC(=O)[C@H](CCCCN)NC(=O)[C@H](CO)NC(=O)[C@H](Cc1ccc(O)cc1)NC(=O)[C@H](CC(=O)O)NC(=O)[C@H](CO)NC(=O)[C@@H](NC(=O)[C@H](Cc1ccccc1)NC(=O)[C@@H](NC(=O)CNC(=O)[C@H](CCC(N)=O)NC(=O)[C@H](CO)NC(=O)[C@@H](N)Cc1c[nH]cn1)[C@@H](C)O)[C@@H](C)O)C(C)C)C(=O)N[C@@H](CC(N)=O)C(=O)N[C@H](C(=O)O)[C@@H](C)O [Compound 51] (I: DSRRAQDFVQWL[Nle]NT-OH / II: H-HSQGTFTSDYSKY; linker I:N-II:C via X1; C-terminus assumed) | 68 nM | 560 µg/mL (≈ 162 µM) | 2.2 | 
CCCC[C@H](NC(=O)[C@H](CC(C)C)NC(=O)[C@H](Cc1c[nH]c2ccccc12)NC(=O)[C@H](CCC(N)=O)NC(=O)[C@@H](NC(=O)[C@H](Cc1ccccc1)NC(=O)[C@H](CC(=O)O)NC(=O)[C@H](CCC(N)=O)NC(=O)[C@H](C)NC(=O)[C@H](CCCNC(=N)N)NC(=O)[C@H](CCCNC(=N)N)NC(=O)NC[C@H](C)NC(=O)[C@H](CC(=O)O)NC(=O)[C@H](CC(C)C)NC(=O)[C@H](Cc1ccc(O)cc1)NC(=O)[C@H](CCCCN)NC(=O)[C@H](CO)NC(=O)[C@H](Cc1ccc(O)cc1)NC(=O)[C@H](CC(=O)O)NC(=O)[C@H](CO)NC(=O)[C@@H](NC(=O)[C@H](Cc1ccccc1)NC(=O)[C@@H](NC(=O)CNC(=O)[C@H](CCC(N)=O)NC(=O)[C@H](CO)NC(=O)[C@@H](N)Cc1c[nH]cn1)[C@@H](C)O)[C@@H](C)O)C(C)C)C(=O)N[C@@H](CC(N)=O)C(=O)N[C@H](C(=O)O)[C@@H](C)O [Compound 52] | 34 nM | 490 µg/mL (≈ 141 µM) | 1.9 | 
CCCC[C@H](NC(=O)[C@H](CC(C)C)NC(=O)[C@H](Cc1c[nH]c2ccccc12)NC(=O)[C@H](CCC(N)=O)NC(=O)[C@@H](NC(=O)[C@H](Cc1ccccc1)NC(=O)[C@H](CC(=O)O)NC(=O)[C@H](CCC(N)=O)NC(=O)[C@H](C)NC(=O)[C@H](CCCNC(=N)N)NC(=O)NC[C@H](C)NC(=O)[C@H](CO)NC(=O)[C@H](CC(=O)O)NC(=O)[C@H](CC(C)C)NC(=O)[C@H](Cc1ccc(O)cc1)NC(=O)[C@H](CCCCN)NC(=O)[C@H](CO)NC(=O)[C@H](Cc1ccc(O)cc1)NC(=O)[C@H](CC(=O)O)NC(=O)[C@H](CO)NC(=O)[C@@H](NC(=O)[C@H](Cc1ccccc1)NC(=O)[C@@H](NC(=O)CNC(=O)[C@H](CCC(N)=O)NC(=O)[C@H](CO)NC(=O)[C@@H](N)Cc1c[nH]cn1)[C@@H](C)O)[C@@H](C)O)C(C)C)C(=O)N[C@@H](CC(N)=O)C(=O)N[C@H](C(=O)O)[C@@H](C)O [Compound 53] | 0.67 nM | 580 µg/mL (≈ 170 µM) | 2.3 | 
CCCC[C@H](NC(=O)[C@H](CC(C)C)NC(=O)[C@H](Cc1c[nH]c2ccccc12)NC(=O)[C@H](CCC(N)=O)NC(=O)[C@@H](NC(=O)[C@H](Cc1ccccc1)NC(=O)[C@H](CC(=O)O)NC(=O)[C@H](CCC(N)=O)NC(=O)NC[C@H](C)NC(=O)[C@H](CCCNC(=N)N)NC(=O)[C@H](CCCNC(=N)N)NC(=O)[C@H](CO)NC(=O)[C@H](CC(=O)O)NC(=O)[C@H](CC(C)C)NC(=O)[C@H](Cc1ccc(O)cc1)NC(=O)[C@H](CCCCN)NC(=O)[C@H](CO)NC(=O)[C@H](Cc1ccc(O)cc1)NC(=O)[C@H](CC(=O)O)NC(=O)[C@H](CO)NC(=O)[C@@H](NC(=O)[C@H](Cc1ccccc1)NC(=O)[C@@H](NC(=O)CNC(=O)[C@H](CCC(N)=O)NC(=O)[C@H](CO)NC(=O)[C@@H](N)Cc1c[nH]cn1)[C@@H](C)O)[C@@H](C)O)C(C)C)C(=O)N[C@@H](CC(N)=O)C(=O)N[C@H](C(=O)O)[C@@H](C)O [Compound 54] | 32 nM | 630 µg/mL (≈ 180 µM) | 2.5 | 
CCCC[C@H](NC(=O)[C@H](CC(C)C)NC(=O)[C@H](Cc1c[nH]c2ccccc12)NC(=O)[C@H](CCC(N)=O)NC(=O)NC[C@H](C)NC(=O)[C@H](Cc1ccccc1)NC(=O)[C@H](CC(=O)O)NC(=O)[C@H](CCC(N)=O)NC(=O)[C@H](C)NC(=O)[C@H](CCCNC(=N)N)NC(=O)[C@H](CCCNC(=N)N)NC(=O)[C@H](CO)NC(=O)[C@H](CC(=O)O)NC(=O)[C@H](CC(C)C)NC(=O)[C@H](Cc1ccc(O)cc1)NC(=O)[C@H](CCCCN)NC(=O)[C@H](CO)NC(=O)[C@H](Cc1ccc(O)cc1)NC(=O)[C@H](CC(=O)O)NC(=O)[C@H](CO)NC(=O)[C@@H](NC(=O)[C@H](Cc1ccccc1)NC(=O)[C@@H](NC(=O)CNC(=O)[C@H](CCC(N)=O)NC(=O)[C@H](CO)NC(=O)[C@@H](N)Cc1c[nH]cn1)[C@@H](C)O)[C@@H](C)O)C(=O)N[C@@H](CC(N)=O)C(=O)N[C@H](C(=O)O)[C@@H](C)O [Compound 55] | 34 nM | 1390 µg/mL (≈ 401 µM) | 5.5 | 
CCCC[C@H](NC(=O)[C@H](CC(C)C)NC(=O)[C@H](Cc1c[nH]c2ccccc12)NC(=O)NC[C@H](C)NC(=O)[C@@H](NC(=O)[C@H](Cc1ccccc1)NC(=O)[C@H](CC(=O)O)NC(=O)[C@H](CCC(N)=O)NC(=O)[C@H](C)NC(=O)[C@H](CCCNC(=N)N)NC(=O)[C@H](CCCNC(=N)N)NC(=O)[C@H](CO)NC(=O)[C@H](CC(=O)O)NC(=O)[C@H](CC(C)C)NC(=O)[C@H](Cc1ccc(O)cc1)NC(=O)[C@H](CCCCN)NC(=O)[C@H](CO)NC(=O)[C@H](Cc1ccc(O)cc1)NC(=O)[C@H](CC(=O)O)NC(=O)[C@H](CO)NC(=O)[C@@H](NC(=O)[C@H](Cc1ccccc1)NC(=O)[C@@H](NC(=O)CNC(=O)[C@H](CCC(N)=O)NC(=O)[C@H](CO)NC(=O)[C@@H](N)Cc1c[nH]cn1)[C@@H](C)O)[C@@H](C)O)C(C)C)C(=O)N[C@@H](CC(N)=O)C(=O)N[C@H](C(=O)O)[C@@H](C)O [Compound 56] | 0.072 nM | 700 µg/mL (≈ 204 µM) | 2.8 | 
